Measurements as given in PubChem BioAssay (NCI).
Values joined by “and” are separate entries in the source; they are usually repeats but may differ in a detail not shown here. Equal values may be shown once.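 Cells were grown in 96-well plates and exposed to each compound for 48 hours at five concentrations; endpoints were interpolated linearly between bracketing concentrations, or set to the highest concentration if not reached. Abbreviation: GI50, concentration required for 50% inhibition of growth. TGI denotes the concentration required for complete inhibition of growth.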

Legend:
Experiment in all cases: DTP human tumour cell line panel, 48 h
UO-31 renal = test system: UO-31 renal
MALME-3M melanoma = test system: MALME-3M melanoma
M14 melanoma = test system: M14 melanoma
KM12 colon = test system: KM12 colon
SNB-75 CNS = test system: SNB-75 CNS
CCRF-CEM leukemia = test system: CCRF-CEM leukemia
HL-60(TB) leukemia = test system: HL-60(TB) leukemia
U251 CNS = test system: U251 CNS
A549 NSCLC = test system: A549 NSCLC
T-47D breast = test system: T-47D breast

Structure (SMILES)	TGI (UO-31 renal)	TGI (MALME-3M melanoma) [µM]	TGI (M14 melanoma) [µM]	TGI (KM12 colon) [µM]	TGI (SNB-75 CNS) [µM]	TGI (CCRF-CEM leukemia) [µM]	TGI (HL-60(TB) leukemia) [µM]	TGI (U251 CNS) [µM]	TGI (A549 NSCLC) [µM]	GI50 (UO-31 renal) [µM]	GI50 (T-47D breast) [µM]	TGI (T-47D breast) [µM]	GI50 (A549 NSCLC) [µM]	GI50 (M14 melanoma) [µM]	GI50 (KM12 colon) [µM]	GI50 (SNB-75 CNS) [µM]	GI50 (U251 CNS) [µM]	GI50 (MALME-3M melanoma) [µM]	GI50 (CCRF-CEM leukemia) [µM]	GI50 (HL-60(TB) leukemia) [µM]
CC(=O)OC1(C#N)CC2OC1C1N=NN(C(=O)OC(C)(C)C)C21 (stereo not drawn)	> 100 µM	> 68.2	51.2	> 100	> 100	83.8	79.4	> 100												
COc1ccc2c(c1OC)C(C=C(c1ccccc1)c1ccccc1)CN(C)C2 (stereo not drawn)	> 100 µM	38.1	31.3	48.9	> 100	56.6		57.3	88.2											
Nc1nc(CC2(O)CCCCC2)cc(-c2ccccc2)n1	> 91.6 µM		> 31.6	> 57	98.1	> 95.9	47.9	> 100	> 72.4											
COc1cc2c(cc1OC)-c1ncc3cc(OC)c(OC)c(OC)c3c1C2	53.6 µM		> 100	95.1	> 100			> 100	> 100	5.49	> 100	> 100	32.1	45.2	17.9	72	36.8			
CCC(=O)Nc1ncnc2ncn(C(=O)CC)c12	> 100 µM	> 100	> 100	> 100	> 100			> 100	> 100			> 100								
Cc1ccc(-c2cc(=O)c3cc(C)c(C)c(C(=O)O)c3o2)cc1[N+](=O)[O-]	> 100 µM	> 100	> 100	> 100	> 100	> 100		> 100	> 100											
C/C(=N\NS(=O)(=O)c1c(C)cc(C)cc1C)c1ccc[n+]([O-])n1	52.8 µM		20.7	> 100	41.2	18.2	25.1	> 100	> 100											
CCCCCCC(O)C(O)CCC(O)C1CCC(CCCCC(O)CC2=CC(C)OC2=O)O1 (stereo not drawn)	7.75 µM and 35.2 µM	33.8	36	77.7	60.8			> 100	35.3	16	4.99	40.7	10.6	17.7	24.5	24.1	15.1			
CCC(C)(C)NS(=O)(=O)c1ccccc1	> 100 µM	> 100	> 100	> 100	> 100	> 100	> 100	> 100	> 100											
CC(C)C1NC(=O)[C@H](C)OC(=O)[C@@H](C(C)C)NC(=O)[C@@H](C)OC(=O)C(C(C)C)NC(=O)[C@H](C)OC1=O (stereo partly drawn)	> 100 µM	> 100	> 100	> 100	> 100	> 100	> 100	> 100	> 100											
CC(=O)Oc1cc(Cl)c(OC(C)=O)c2c(OC(C)=O)c(C)c(O[Si](C)(C)C(C)(C)C)cc12	26.3 µM		19.6	26.1		13.5	8.89	6.78												
N/C(=N\N=C\c1ccc(O)c(O)c1)NO	> 100 µM	> 100	> 100	> 100	> 100	> 100	> 100	> 100	> 100											
CC(C)c1cc(C(=O)[O-])c(O)c(C(C)C)c1.CC(C)c1cc(C(=O)[O-])c(O)c(C(C)C)c1.CC(C)c1cc(C(=O)[O-])c(O)c(C(C)C)c1.CC(C)c1cc(C(=O)[O-])c(O)c(C(C)C)c1.CC(C)c1cc(C(=O)[O-])c(O)c(C(C)C)c1.CC(C)c1cc(C(=O)[O-])c(O)c(C(C)C)c1.[Cu+2].[Mn+2].[Mn+2]	32.6 µM	28.7	30.4	43.4	68.7	42.8	53.9	22.7	33.8	16.5			11.1	14.8	18.2	24.8	9.43	15.1	15.8	17.7
CCOC(=O)c1csc(-c2nc(CCNC(=O)c3ccccc3)sc2Cl)n1	> 100 µM	> 100	> 100	> 100	> 100	> 100	> 100	> 100	> 100											
O=C(COC(=O)c1cccc2c(=O)c3ccccc3[nH]c12)Nc1ccc(S(=O)(=O)Nc2ncccn2)cc1	> 100 µM	> 100	> 100	> 100	92.7	67.4	71.3	56.3	> 100											
CC(CCC(=O)O)c1ccc(Br)cc1 (stereo not drawn)	> 100 µM	> 100	> 100	> 100	> 100	> 100	> 100	> 100	> 100											
COc1c(Cl)[c]([Hg][O]C(C)=O)c(NCC(C)=O)c(OC)[c]1[Hg][O]C(C)=O	40 µM	7.89	28.6	> 100	32.5	34.4	50.1	21.9	> 100	22			81.6	14.7	31.7	13.9	10	2.7	10.3	19.9
COc1cc(/C=C2\Cc3ccccc3C2=O)cc(OC)c1OC	> 100 µM	> 100	> 100	> 100	> 100	> 100	> 100	> 100	> 100											
COc1ccc(/C=C2\CCc3ccccc3C2=O)cc1OC	> 100 µM	> 100	50	39.5	76.9	> 100		> 100	> 100											
CCOc1ccc(N=Cc2ccc3ccccc3n2)cc1	> 100 µM	> 100	> 100	> 100	> 86.3	> 100	> 76.8	> 100	> 100											
CC(C)=CCC/C(C)=C/CC/C(C)=C/C1CCC(=O)C1(C)C (stereo not drawn)	31.7 µM	37.5	42.5	32.7	81.9	35.4	27	32.7	77.6											
